Marks after values point to notes of the source that are not given here.
What was measured:
Type in all cases: cell-based
mouse splenocytes = experiment: IL-2 levels in supernatants of cultured mouse splenocytes (WT or GPR174-KO) stimulated with anti-CD3 and anti-CD28, MSD platform; details: 2 days
Experimental: To make single cell suspensions from mouse splenocytes, spleens were cut into 1-2 mm^3 pieces with a razor blade and incubated at 37° C. with 10 μg/mL DNase and 1 mg/mL Collagenase D with agitation for 90 min. Spleen fragments and cells were then pressed through a nylon screen, and the resulting cell suspension was washed. In 96-well flat-bottom plates, splenocytes were cultured in quadruplicate with the following conditions for 2 days, after which supernatants were tested for cytokine levels with the MSD platform.
Anti-CD3 (clone 2C11; 0.1 μg/mL)
GPR174 inhibitor (compound 10, 1 μM or 0.3 μM, or DMSO vehicle control)
GPR174 inhibitor (compound 6, 0.3 μM, or DMSO vehicle control)
Adenosine receptor agonist (NECA, 0.1 μM)

human PBMC = experiment: IL-2 in supernatants of human PBMC stimulated with anti-CD3 and anti-CD28, ELISA; details: human PBMC donor 8, 24 hours post-stimulation; compound 10 1 μM, ZM-241385 0.1 μM, APCP 10 μM; FIG. 71
Experimental: Human PBMCs, obtained from a human volunteer donor (donor 8), were dispensed in X-vivo15 media (Lonza) supplemented with Glutamax, penicillin and streptomycin, at density of 1×10^6 cells/well in a 96-well flat-bottom plate and were cultured in quadruplicate for 3 hours in the presence of:
GPR174 inhibitory compound 10 (1 μM);
CD73 inhibitory compound, adenosine 5′-(a,p-methylene)diphosphate sodium salt (APCP, Tocris, 10 μM);
Combinations of the above agents;
After which 1 μg/mL anti-CD3 antibody (UCHT1) and 0.1 μg/mL anti-CD28 antibody (CD28.2) were added to activate T cells. Supernatants from these cells were collected at 24 hours post-stimulation and the levels of IL-2 were determined by ELISA.

GPR174 [1] = molecular target: T1, GPR174 (Homo sapiens, UniProt Q9BXC1); experiment: Cellular redistribution assay (CRA) for GPR174
From the text: One method for identifying compounds capable of modulating a receptor is using a cellular redistribution assay (“CRA”). Exemplary CRA methods are found in U.S. Pat. No. 7,309,576 issued to O'Dowd et al. and in O'Dowd et al., J. Biomol. Screen. 12:175-85,2007. […] Incorporation of the NLS alters the cellular localization of the GPCR, such that the majority of the NLS-modified receptor is present in the cell interior. An NLS-modified GPCR, when interacting with a functionally active compound, is mostly localized on the cell surface. Thus, it becomes possible to identify receptor modulators without knowledge of the endogenous ligand or a surrogate ligand.
The inventors have identified a number of compounds that inhibit GPR174 using a CRA assay similar to that described in U.S. Pat. No. 7,309,576 and in O'Dowd et al., J. Biomol. Screen. 12:175-85, 2007. These compounds are described in detail below.
(§1) The inventors used a CRA similar to that described in U.S. Pat. No. 7,309,576 and O'Dowd et al., J. Biomol. Screen. 12:175-85, 2007 to identify compounds that are capable of interacting with GPR174 using a library of approximately 370,000 chemical entities. Briefly described, the CRA assay described in U.S. Pat. No. 7,309,576 involves artificially inserting a NLS into the dopamine D1 receptor (DRD1), which allows the receptor to traffic from the cell membrane to the cell interior, and that the binding of antagonists to the receptor retained the receptor at the cell surface, while removal of the ligand allowed the receptor to continue to internalize from the cell surface. Both antagonists and agonists that selectively bound the receptor retained the receptor on the plasma membrane. GPR174 constructs were generated for use in a CRA-based compound screening assay. From this screen, the inventors initially identified compounds of formula I-VI, as described herein and included in Table 1.
Target sequence in this assay (Q9BXC1 1-292 limits assumed): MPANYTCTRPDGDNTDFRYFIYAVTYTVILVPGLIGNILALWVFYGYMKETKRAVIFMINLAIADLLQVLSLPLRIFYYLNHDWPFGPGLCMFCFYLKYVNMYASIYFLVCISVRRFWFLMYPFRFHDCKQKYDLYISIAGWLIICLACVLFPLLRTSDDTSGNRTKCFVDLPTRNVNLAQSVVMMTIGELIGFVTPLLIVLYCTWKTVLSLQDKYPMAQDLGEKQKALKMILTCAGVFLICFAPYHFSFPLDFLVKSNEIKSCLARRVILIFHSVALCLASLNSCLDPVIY

CHRM1 = experiment: CRA against CHRM1
From the text: as §1
The inventors also sought to validate that the compounds identified using the CRA are modulatory compounds. To this end, the above-described CRA was used to screen a library for compounds that interact with three control non-orphan receptors, and the results of this screen were compared to the results of screening the same library for compound that were identified using a Fluorometric Imaging Plate Reader (FLIPR) assay, a conventional technique commonly used to identify compounds interacting with non-orphan GPCRs signaling through Ca^++. Three non-orphan GPCRs—Muscarinic acetylcholine receptor M1 (CHRM1), Adrenergic receptor alpha 1a (ADRA1a), and Neuropeptide S receptor (NPSR)—were screened against a 10,000-compound GPCR-focused library. Thirty interacting compound “hits” were identified using the CRA, and eighty-one hits were identified using the FLIPR for the CHRM1 receptor; 9 CRA hits and 29 FLIPR hits for the NPS receptor were identified; and 110 CRA hits and 110 FLIPR hits for ADRA1a.
In addition, the CRA can also provide the relative potencies of compounds against the target receptor.

human PBMCs = experiment: Th1 cytokines in supernatants of stimulated human PBMC, GPR174 inhibitor with adenosine pathway inhibitors (Examples 15, 18-22); details: donor 7
Experimental: Human PBMCs, obtained from a human volunteer donor, were dispensed at density of 1×10^6 cells/well in a 96-well flat-bottom plate and were stimulated in triplicate with 1 μg/mL anti-CD3 antibody (UCHT1) and 0.1 μg/mL anti-CD28 antibody (CD28.2) in the presence of:
Supernatants from these cells were collected at 24 hours post-stimulation and the levels of IFN-γ were determined by ELISA assay. Statistical analysis was carried out using one-way ANOVA with Tukey's post-hoc multiple comparison's correction.
Human PBMCs, obtained from a human volunteer donor (donor 1), were dispensed in X-vivo15 media (Lonza) supplemented with Glutamax, penicillin and streptomycin, at density of 1×10^6 cells/well in a 96-well flat-bottom plate and were stimulated with 1 μg/mL anti-CD3 antibody (UCHT1) and 0.1 μg/mL anti-CD28 antibody (CD28.2) in the presence of:
Supernatants from these cells were collected at 24 hours post-stimulation and the levels of IFN-γ, IL-2 and TNF were determined by ELISA assays.
Human PBMCs, obtained from two individual human volunteer donors (donor 2 and donor 3), were dispensed at density of 1×10^6 cells/well in a 96-well flat-bottom plate and were stimulated with 1 μg/mL anti-CD3 antibody (UCHT1) and 0.1 μg/mL anti-CD28 antibody (CD28.2) in the presence of:
Human PBMCs, obtained from twelve individual human volunteer donors were dispensed at density of 1×10^6 cells/well in a 96-well flat-bottom plate and were stimulated in triplicate with 1 μg/mL anti-CD3 antibody (UCHT1) and 0.1 μg/mL anti-CD28 antibody (CD28.2) in the presence of:
A total of 44 experiments using PBMC from 12 healthy donors were tested (9 donors for GM-CSF), with each donor tested in 1 to 8 separate experiments, depending on the donor (1 to 4 experiments each for GM-CSF). […] Cytokines were detected in supernatants with the Legendplex (Biolegend) or the MSB (MesoScale) platforms. […] One-way ANOVA with Tukey's post-hoc multiple comparisons correction was performed to identify significant differences (FC, mean fold change; ****, p<0.0001, ***, p<0.001; **, p<0.01; *, p<0.05, ns, not significant).
Human PBMC (1×10^6 cells/well in a 96-well flat-bottom plate) obtained from donor 3 and donor 6 were stimulated with 1 μg/mL anti-CD3 antibody (UCHT1) and 0.1 μg/mL anti-CD28 antibody (CD28.2) in the presence of:
Supernatants from these cells were collected at 24 hours post-stimulation and the levels of IFN-γ, IL-2, and TNF were determined with the MSD platform (MesoScale Discovery).
Human PBMC (1×10^6 cells/well in a 96-well flat-bottom plate) obtained from donor 7 were stimulated with 1 μg/mL […] (UCHT1) and 0.1 μg/mL anti-CD28 antibody (CD28.2) in the presence of:
Supernatants from these cells were collected at 24 hours post-stimulation and the levels of IFN-γ, IL-2, TNF and GM-CSF were determined with the MSD platform (MesoScale Discovery).
Supernatants from these cells were collected at 24 hours post-stimulation and the levels of IFN-γ, IL-2 and TNF were determined with the MSD platform (MesoScale Discovery).

GPR174 [2] = molecular target: T1, GPR174; experiment: CRE-Luc reporter Gs signaling assay with GPR174; design: host or cells: HEK293 or CHO cell lines (ATCC); details: pCRE-Luc reporter
Target sequence in this assay (Q9BXC1 whole entry): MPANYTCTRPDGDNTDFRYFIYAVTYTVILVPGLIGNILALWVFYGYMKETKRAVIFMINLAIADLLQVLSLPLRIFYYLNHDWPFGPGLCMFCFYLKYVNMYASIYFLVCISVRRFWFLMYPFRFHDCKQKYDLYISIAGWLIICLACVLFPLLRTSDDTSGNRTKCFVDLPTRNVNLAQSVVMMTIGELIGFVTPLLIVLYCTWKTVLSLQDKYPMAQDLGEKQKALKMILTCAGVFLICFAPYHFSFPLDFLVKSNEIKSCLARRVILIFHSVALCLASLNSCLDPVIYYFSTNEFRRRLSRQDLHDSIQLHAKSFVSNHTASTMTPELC

[3] = high and low concentrations, ZM 0.1 μM
[4] = no ZM, 0.3 μM (compound 20: 3 μM)
[5] = no ZM, 1 μM (compound 20: 10 μM)
[6] = with ZM-241385 0.1 μM, 0.3 μM (compound 20: 3 μM)
[7] = with ZM-241385 0.1 μM, 1 μM (compound 20: 10 μM), label ZM = ZM alone

Nc1nc(NCCc2ccc(O)cc2)nc2nc(-c3ccco3)nn12 [ZM-241385]
increase of IL-2 levels (mouse splenocytes; GPR174-KO splenocytes, no NECA, ZM-241385 0.1 μM, FIG. 68B): 1.3 fold | increase of IL-2 levels (mouse splenocytes; WT splenocytes, NECA 0.1 μM, compounds 10, 6 0.3 μM, ZM-241385 0.2 μM, FIG. 69): 2 fold | increase of IL-2 levels (mouse splenocytes; WT splenocytes, no NECA, compound 10 1 μM, ZM-241385 0.1 μM, FIG. 68A): 1.3 fold | increase of IL-2 levels (human PBMC): 1.4 fold

adenosine 5′-(a,p-methylene)diphosphate sodium salt [APCP]
increase of IL-2 levels (human PBMC): 1.5 fold

Cc1ccccc1Nc1nnc(-c2ccc(C)c(S(N)(=O)=O)c2)c2ccccc12 [compound 20]
dose-response curve against GPR174 in the CRA (FIG. 5A) (GPR174 [1]): show a dose-response curve | activity against CHRM1 in the CRA (FIG. 5B) (CHRM1): do not show any activity | synergy with ZM on GM-CSF (greater than the sum of the increases with each inhibitor alone) (human PBMCs; [3]): synergized with ZM | synergy with ZM on IFN-γ (greater than the sum of the increases with each inhibitor alone) (human PBMCs; [3]): synergized with ZM | synergy with ZM on IL-2 (greater than the sum of the increases with each inhibitor alone) (human PBMCs; [3]): synergized with ZM | synergy with ZM on TNF (greater than the sum of the increases with each inhibitor alone) (human PBMCs; [3]): synergized with ZM | GM-CSF, ratio relative to vehicle control (human PBMCs; [4]): 2.7* | IFN-γ, ratio relative to vehicle control (human PBMCs; [4]): 1.2 | IL-2, ratio relative to vehicle control (human PBMCs; [4]): 1.3 | TNF, ratio relative to vehicle control (human PBMCs; [4]): 1.4* | GM-CSF, ratio relative to vehicle control (human PBMCs; [5]): 2.3* | IFN-γ, ratio relative to vehicle control (human PBMCs; [5]): 1.5* | IL-2, ratio relative to vehicle control (human PBMCs; [5]): 1.4* | TNF, ratio relative to vehicle control (human PBMCs; [5]): 1.5* | GM-CSF, ratio relative to vehicle control (human PBMCs; [6]): 4.6* | IFN-γ, ratio relative to vehicle control (human PBMCs; [6]): 1.8* | IL-2, ratio relative to vehicle control (human PBMCs; [6]): 1.6* | TNF, ratio relative to vehicle control (human PBMCs; [6]): 1.9* | GM-CSF, ratio relative to vehicle control (human PBMCs; [7]): 4.4* | IFN-γ, ratio relative to vehicle control (human PBMCs; [7]): 2.1* | IL-2, ratio relative to vehicle control (human PBMCs; [7]): 2.1* | TNF, ratio relative to vehicle control (human PBMCs; [7]): 2.4* | Human GPR174 CRE Activity: nature of the compound (IA, antagonist, NM) (GPR174 [2]): Antagonist or allosteric modulator

Source: US20200345725A1, “Methods and Compositions for Treating Cancer” (Omeros Corporation, priority 2019, published 2020)
